Source: patent US7858644B2, “EP4 receptor antagonists” (Asterand UK Limited, priority 2003, dated 2010)

Assays:
human EP3 receptor = biological target: T1, human EP3 receptor (Homo sapiens, UniProt P43115); experiment: Binding ability to human EP3 receptor ([3H]PGE2 displacement); conditions: membranes from cells stably transfected with human EP receptor cDNA; [3H]PGE2 2.5 nM; Cheng-Prusoff from IC50; read-out: pKi EP3 (converted)
T1 construct: expressed in transfected cells
T1 sequence (P43115 1-390): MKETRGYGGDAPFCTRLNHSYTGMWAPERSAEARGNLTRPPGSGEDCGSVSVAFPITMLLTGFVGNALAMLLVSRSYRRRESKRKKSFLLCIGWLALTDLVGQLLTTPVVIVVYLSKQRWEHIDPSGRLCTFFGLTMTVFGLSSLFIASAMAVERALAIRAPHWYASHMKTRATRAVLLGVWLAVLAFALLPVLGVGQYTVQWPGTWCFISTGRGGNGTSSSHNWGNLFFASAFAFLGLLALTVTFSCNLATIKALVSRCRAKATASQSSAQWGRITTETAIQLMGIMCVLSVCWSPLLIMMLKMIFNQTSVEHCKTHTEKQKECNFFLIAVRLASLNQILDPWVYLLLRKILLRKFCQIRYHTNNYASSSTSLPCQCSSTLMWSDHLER
How it was run: (§1)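 Membranes from cells stably transfected with human EP receptor cDNA were incubated to equilibrium with [3H]PGE2 and compound (0.1 to 10 000 nM). Non-specific binding was defined with 10 uM PGE2; bound radioligand was separated by vacuum filtration and counted by scintillation.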

human EP4 receptor = biological target: T2, human EP4 receptor (Homo sapiens, UniProt P35408); experiment: Binding ability to human EP4 receptor ([3H]PGE2 displacement); conditions: read-out: pKi EP4 (converted)
T2 construct: expressed in transfected cells
Experimental: (§2) Membranes were prepared from cells stably transfected with human EP receptor cDNA. In brief, cells were cultured to confluency, scraped from culture flasks, and centrifuged (800 g, 8 minutes, 4° C.). Cells were twice washed in ice cold homogenisation buffer containing 10 mMTris-HCl, 1 mM EDTA. 2Na, 250 mM sucrose, 1 mM PMSF, 0.3 mM indomethacin, pH 7.4, homogenised and re-centrifuged as before. The supernatant was stored on ice and pellets re-homogenised and re-spun. Supernatants were pooled and centrifuged at 40000 g, 10 minutes, 4° C. Resultant membrane pellets were stored at −80° C. until use.
(§3) Incubations were performed at suitable temperatures and for suitable times to allow equilibrium to be reached. Non-specific binding was determined in the presence of 10 uM PGE2. Bound and free radiolabel was separated by vacuum manifold filtration using appropriate wash buffers, and bound radiolabel was determined by scintillation counting. Constituents of each of the buffers are included in table 1 below.
(§4) This approach follows that set out in Kenakin, T. P., Pharmacologic analysis of drug receptor interaction. Raven Press, New York, 2nd edition.

human EP2 receptor = biological target: T3, human EP2 receptor (Homo sapiens, UniProt P43116); experiment: Binding ability to human EP2 receptor ([3H]PGE2 displacement); conditions: read-out: pKi EP2 (converted)
T3 construct: expressed in transfected cells
How it was run: as §1

human EP1 receptor = biological target: T4, human EP1 receptor (Homo sapiens, UniProt P34995); experiment: Binding ability to human EP1 receptor ([3H]PGE2 displacement); conditions: membranes from cells stably transfected with human EP receptor cDNA; [3H]PGE2 3.6 nM; Cheng-Prusoff from IC50; read-out: pKi EP1 (converted)
T4 construct: expressed in transfected cells
T4 sequence (P34995 1-402): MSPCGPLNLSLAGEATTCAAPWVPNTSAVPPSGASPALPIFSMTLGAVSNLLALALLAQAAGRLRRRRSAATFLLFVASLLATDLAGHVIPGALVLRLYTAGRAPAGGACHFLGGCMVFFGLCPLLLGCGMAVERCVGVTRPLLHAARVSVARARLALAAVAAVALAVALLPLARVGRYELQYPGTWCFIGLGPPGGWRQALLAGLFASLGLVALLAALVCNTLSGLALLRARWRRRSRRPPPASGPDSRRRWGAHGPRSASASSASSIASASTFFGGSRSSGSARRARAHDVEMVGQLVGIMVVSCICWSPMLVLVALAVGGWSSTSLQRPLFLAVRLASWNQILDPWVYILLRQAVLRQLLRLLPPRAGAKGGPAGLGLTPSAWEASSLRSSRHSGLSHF
Experimental: as §2
as §3, with “For assay, membranes expressing human EP4, EP3, EP2 or EP1 receptors were incubated in Millipore (MHVBN45) plates containing assay buffer, radiolabelled [^3H]PGE2 and 0.1 to 10 000 nM concentrations of compounds. Incubations” for “Incubations”
as §4

T2 sequence (P35408 whole entry): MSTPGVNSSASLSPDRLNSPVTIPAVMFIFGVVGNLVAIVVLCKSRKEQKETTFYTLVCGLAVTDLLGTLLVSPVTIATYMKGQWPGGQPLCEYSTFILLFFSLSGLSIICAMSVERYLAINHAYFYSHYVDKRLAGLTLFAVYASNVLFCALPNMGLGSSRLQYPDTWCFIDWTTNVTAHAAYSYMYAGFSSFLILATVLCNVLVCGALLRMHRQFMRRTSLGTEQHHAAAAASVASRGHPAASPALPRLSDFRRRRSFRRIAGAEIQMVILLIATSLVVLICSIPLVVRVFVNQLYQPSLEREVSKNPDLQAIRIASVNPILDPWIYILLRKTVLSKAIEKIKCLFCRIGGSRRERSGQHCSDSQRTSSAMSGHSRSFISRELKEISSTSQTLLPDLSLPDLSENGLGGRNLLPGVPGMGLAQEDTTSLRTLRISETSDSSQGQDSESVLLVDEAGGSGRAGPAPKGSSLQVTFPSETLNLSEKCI
T3 sequence (P43116 whole entry): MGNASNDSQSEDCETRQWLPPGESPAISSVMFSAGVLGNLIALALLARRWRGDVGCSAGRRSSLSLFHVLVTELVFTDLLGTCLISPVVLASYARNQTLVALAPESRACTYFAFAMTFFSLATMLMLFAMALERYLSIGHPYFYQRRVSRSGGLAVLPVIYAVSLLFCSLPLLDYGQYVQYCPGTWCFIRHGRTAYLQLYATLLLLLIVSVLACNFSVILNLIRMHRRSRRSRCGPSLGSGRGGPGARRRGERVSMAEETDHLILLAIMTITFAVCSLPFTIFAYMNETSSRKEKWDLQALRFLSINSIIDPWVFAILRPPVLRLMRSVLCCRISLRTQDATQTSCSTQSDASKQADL

Structure (SMILES)	Ki (human EP3 receptor) [µM]	Ki (human EP4 receptor) [µM]	Ki (human EP2 receptor) [µM]	Ki (human EP1 receptor) [µM]
COc1ccc(-c2ccc(NC(=O)c3cc(C(=O)O)oc3C)cc2)cc1 [Compound 24, 4-(4′-Methoxy-biphenyl-4-ylcarbamoyl)-5-methyl-furan-2-carboxylic acid]	> 10	< 0.316	> 10	> 10
COc1ccc(-c2ccc(OCc3cc(S(=O)(=O)NC(=O)c4ccccc4)oc3C)cc2)cc1 [Compound 49, 4-(4′-Methoxy-biphenyl-4-yloxymethyl)-5-methyl-furan-2-sulfonic acid benzoylamide]	> 10	< 0.01	> 10	> 10
Cc1ccccc1S(=O)(=O)NC(=O)c1cc(COc2ccc(-c3ccccc3)cc2)c(C)o1 [Compound 60, N-[4-(Biphenyl-4-yloxymethyl)-5-methyl-furan-2-carbonyl]-2-methyl-benzenesulphonamide]	> 10	< 0.01	> 10	> 10
Cc1oc(C(=O)NS(=O)(=O)c2ccccc2)cc1COc1ccc(-c2ncccn2)cc1 [Compound 138, N-[5-Methyl-4-(4-pyrimidin-2-yl-phenoxymethyl)-furan-2-carbonyl]-benzenesulphonamide]	> 10	< 3.16	> 10	–
COc1ccc(-c2ccc(OCc3cc(C(=O)O)oc3C)cc2)c(OC)c1 [Compound 140, 4-(2′,4′-Dimethoxy-biphenyl-4-yloxymethyl)-5-methyl-furan-2-carboxylic acid]	> 10	< 3.16	> 10	–
COc1ccc(-c2ccc(OCc3cc(C(=O)NS(=O)(=O)c4ccccc4)oc3C)cc2)c(OC)c1 [Compound 141, N-[4-(2′,4′-Dimethoxy-biphenyl-4-yloxymethyl)-5-methyl-furan-2-carbonyl]-benzenesulphonamide]	> 10	< 0.316	> 10	–
COc1ccc(-c2ccc(OCc3cc(C(=O)NS(=O)(=O)c4c(C)noc4C)oc3C)cc2)c(OC)c1 [Compound 142, 3,5-Dimethyl-isoxazole-4-sulphonic acid [4-(2′,4′-dimethoxy-biphenyl-4-yloxymethyl)-5-methyl-furan-2-carbonyl]-amide]	> 10	< 0.1	> 10	–
COc1ccc(-c2ccc(OCc3cc(C(=O)O)oc3C)cc2)c(C)c1 [Compound 144, 4-(4′-Methoxy-2′-methyl-biphenyl-4-yloxymethyl)-5-methyl-furan-2-carboxylic acid]	> 10	< 1	> 10	–
Cc1oc(-c2nnn[nH]2)cc1COc1ccc(-c2ccccc2)cc1 [Compound 149, 5-[4-(Biphenyl-4-yloxymethyl)-5-methyl-furan-2-yl]-1H-tetrazole]	> 10	< 0.1	> 10	–
Cc1oc(C(=O)O)cc1CSc1ccc(-c2ccc(OC(F)F)cc2)cc1 [Compound 153, 4-(4′-Difluoromethoxy-biphenyl-4-ylsulphanylmethyl)-5-methyl-furan-2-carboxylic acid]	> 10	< 1	> 10	–
Cc1ccccc1S(=O)(=O)NC(=O)c1cc(CSc2ccc(-c3ccc(OC(F)F)cc3)cc2)c(C)o1 [Compound 154, N-[4-(4′-Difluoromethoxy-biphenyl-4-ylsulphanylmethyl)-5-methyl-furan-2-carbonyl]-2-methyl-benzenesulphonamide]	> 1	< 0.0316	> 3.16	–
Cc1oc(C(=O)NS(=O)(=O)c2ccccc2)cc1CSc1ccc(-c2ccc(OC(F)F)cc2)cc1 [Compound 155, N-[4-(4′-Difluoromethoxy-biphenyl-4-ylsulphanylmethyl)-5-methyl-furan-2-carbonyl]-benzenesulphonamide]	> 3.16	< 1	> 3.16	–
Cc1ccccc1S(=O)(=O)NC(=O)c1cc(C[S+]([O-])c2ccc(-c3ccc(OC(F)F)cc3)cc2)c(C)o1 (stereo not drawn) [Compound 156, N-[4-(4′-Difluoromethoxy-biphenyl-4-ylsulphinylmethyl)-5-methyl-furan-2-carbonyl]-2-methyl-benzenesulphonamide]	> 10	< 10	> 10	–
Cc1ccccc1S(=O)(=O)NC(=O)c1cc(CS(=O)(=O)c2ccc(-c3ccc(OC(F)F)cc3)cc2)c(C)o1 [Compound 156a, N-[4-(4′-Difluoromethoxy-biphenyl-4-sulfonylmethyl)-5-methyl-furan-2-carbonyl]-2-methyl-benzenesulfonamide]	> 10	< 10	> 10	–
Cc1oc(C(=O)O)cc1CNc1ccc(-c2ccccc2)cc1 [Compound 160, 4-(Biphenyl-4-ylaminomethyl)-5-methyl-furan-2-carboxylic acid]	> 10	< 3.16	> 10	–
COc1ccc(-c2ccc(NCc3cc(C(=O)NS(=O)(=O)c4ccccc4C)oc3C)cc2)nc1 [Compound 167, N-(4-{[4-(5-Methoxy-pyridin-2-yl)-phenylamino]-methyl}-5-methyl-furan-2-carbonyl)-2-methyl-benzenesulphonamide]	> 10	< 0.316	> 10	–
Cc1oc(C(=O)O)cc1CNc1ccc(-c2ccc(OC(F)F)cc2)cc1 [Compound 171, 4-(4′-Difluoromethoxy-biphenyl-4-ylaminomethyl)-5-methyl-furan-2-carboxylic acid]	> 10	< 0.316	> 10	–
Cc1oc(C(=O)NS(=O)(=O)c2ccccc2)cc1CNc1ccc(-c2ccc(OC(F)F)cc2)cc1 [Compound 172, N-{4-[(4′-Difluoromethoxy-biphenyl-4-ylamino)-methyl]-5-methyl-furan-2-carbonyl}-benzenesulphonamide]	> 10	< 0.01	> 10	–
Cc1noc(C)c1S(=O)(=O)NC(=O)c1cc(CNc2ccc(-c3ccc(OC(F)F)cc3)cc2)c(C)o1 [Compound 174, 3,5-Dimethyl-isoxazole-4-sulphonic acid {4-[(4′-difluoromethoxy-biphenyl-4-ylamino)-methyl]-5-methyl-furan-2-carbonyl}-amide]	> 10	< 0.01	> 10	–
Cc1oc(C(=O)O)cc1CN(C)c1ccc(-c2ccc(OC(F)F)cc2)cc1 [Compound 176, 4-{[(4′-Difluoromethoxy-biphenyl-4-yl)-methyl-amino]-methyl}-5-methyl-furan-2-carboxylic acid]	> 10	< 0.316	> 10	–
Cc1ccccc1S(=O)(=O)NC(=O)c1cc(CN(C)c2ccc(-c3ccc(OC(F)F)cc3)cc2)c(C)o1 [Compound 177, N-(4-{[(4′-Difluoromethoxy-biphenyl-4-yl)-methyl-amino]-methyl}-5-methyl-furan-2-carbonyl)-2-methyl-benzenesulfonamide]	> 10	< 0.0316	> 10	–
